Data: patent US8044052B2, “Biaryl ether urea compounds” (Pfizer Inc., priority 2006, dated 2011)

Molecular target: T1, Human FAAH (Homo sapiens, UniProt O00519)
T1 construct: made in house
T1 sequence (O00519 1-579): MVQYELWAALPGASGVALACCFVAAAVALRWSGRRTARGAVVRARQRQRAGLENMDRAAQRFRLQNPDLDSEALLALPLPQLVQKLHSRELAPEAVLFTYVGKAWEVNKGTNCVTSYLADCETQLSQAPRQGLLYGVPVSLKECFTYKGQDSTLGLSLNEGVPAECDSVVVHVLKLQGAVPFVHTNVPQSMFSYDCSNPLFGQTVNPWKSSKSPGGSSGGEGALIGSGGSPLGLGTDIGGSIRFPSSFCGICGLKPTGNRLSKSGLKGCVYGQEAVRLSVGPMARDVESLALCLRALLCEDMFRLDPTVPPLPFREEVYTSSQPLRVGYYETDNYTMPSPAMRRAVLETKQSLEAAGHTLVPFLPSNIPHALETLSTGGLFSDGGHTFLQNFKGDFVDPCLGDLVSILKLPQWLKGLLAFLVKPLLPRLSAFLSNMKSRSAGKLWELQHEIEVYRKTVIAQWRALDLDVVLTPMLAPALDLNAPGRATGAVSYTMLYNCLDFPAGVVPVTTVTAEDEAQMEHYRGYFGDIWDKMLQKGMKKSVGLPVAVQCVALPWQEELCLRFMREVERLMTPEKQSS
Assay: FAAH assay (glutamate dehydrogenase-coupled, oleamide substrate, absorbance at 340 nm)
Assay type: biochemical
Conditions: irreversible inhibition, 1-4 nM FAAH, pH 7.4, 30° C., 90 min

| SMILES | hFAAH kinact/Ki |
| --- | --- |
| O=C(Nc1cccnc1)N1CCC(=Cc2cccc(Oc3ccc(OCC(F)(F)F)cc3)c2)CC1 [Example 99, N-pyridin-{3-yl-4-3-[4-(2,2,2-trifluoroethoxy)phenoxy]benzylidene}piperidine-1-carboxamide] | 1130 M⁻¹ s⁻¹ |

Same assay, conditions: irreversible inhibition, 1-4 nM FAAH, pH 7.4, 30° C., 90 min, read-out: hFAAH kinact/Ki

| SMILES | kinact/KI |
| --- | --- |
| COc1ccc(Oc2cccc(C=C3CCN(C(=O)Nc4cccnn4)CC3)c2)c(C)n1 [Example 97, 4-{3-[(6-methoxy-2-methylpyridin-3-yl)oxy]benzylidene}-N-pyridazin-3-ylpiperidine-1-carboxamide] | 394 M⁻¹ s⁻¹ |
| O=C(Nc1cccnn1)N1CCC(=Cc2cccc(Oc3ccc(OCC(F)(F)F)cc3)c2)CC1 [Example 100, N-pyridazin-3-yl-4-{3-[4-(2,2,2-trifluoroethoxy)phenoxy]benzylidene}piperidine-1-carboxamide] | 2000 M⁻¹ s⁻¹ |
| COc1cccc2cnc(Oc3cccc(C=C4CCN(C(=O)Nc5cccnn5)CC4)c3)nc12 [Example 101, 4-{3-[(8-methoxyquinazolin-2-yl)oxy]benzylidene}-N-pyridazin-3-ylpiperidine-1-carboxamide] | 209 M⁻¹ s⁻¹ |
| O=C(Nc1cccnn1)N1CCC(=Cc2cccc(Oc3ncc4cccnc4n3)c2)CC1 [Example 102, N-pyridazin-3-yl-4-[3-(pyrido[2,3-d]pyrimidin-2-yloxy)benzylidene]piperidine-1-carboxamide] | 1390 M⁻¹ s⁻¹ |
| O=C(Nc1cccnn1)N1CCC(=Cc2cccc(Oc3ncccn3)c2)CC1 [Example 103, N-pyridazin-3-yl-4-[3-(pyrimidin-2-yloxy)benzylidene]piperidine-1-carboxamide] | 162 M⁻¹ s⁻¹ |
| COc1ccc(-c2cnc(Oc3cccc(C=C4CCN(C(=O)Nc5cccnn5)CC4)c3)nc2)cc1 [Example 104, 4-(3-{[5-(4-methoxyphenyl)pyrimidin-2-yl]oxy}benzylidene)-N-pyridazin-3-ylpiperidine-1-carboxamide] | 105 M⁻¹ s⁻¹ |
| O=C(Nc1cccnn1)N1CCC(=Cc2cccc(Oc3ncc4ccccc4n3)c2)CC1 [Example 105, N-pyridazin-3-yl-4-[3-(quinazolin-2-yloxy)benzylidene]piperidine-1-carboxamide] | 2530 M⁻¹ s⁻¹ |
| O=C(Nc1cccnn1)N1CCC(=Cc2cccc(Oc3ncc(C4CC4)cn3)c2)CC1 [Example 106, 4-{3-[(5-cyclopropylpyrimidin-2-yl)oxy]benzylidene}-N-pyridazin-3-ylpiperidine-1-carboxamide] | 3330 M⁻¹ s⁻¹ |
| CCc1cnc(Oc2cccc(C=C3CCN(C(=O)Nc4cccnn4)CC3)c2)nc1 [Example 107, 4-{3-[(5-ethylpyrimidin-2-yl)oxy]benzylidene}-N-pyridazin-3-ylpiperidine-1-carboxamide] | 6220 M⁻¹ s⁻¹ |
| O=C(Nc1cccnn1)N1CCC(=Cc2cccc(Oc3ncc(F)cn3)c2)CC1 [Example 108, 4-{3-[(5-fluoropyrimidin-2-yl)oxy]benzylidene}-N-pyridazin-3-ylpiperidine-1-carboxamide] | 1120 M⁻¹ s⁻¹ |
| Cc1cnc(Oc2cccc(C=C3CCN(C(=O)Nc4cccnn4)CC3)c2)nc1 [Example 109, 4-{3-[(5-methylpyrimidin-2-yl)oxy]benzylidene}-N-pyridazin-3-ylpiperidine-1-carboxamide] | 1240 M⁻¹ s⁻¹ |
| O=C(Nc1cccnn1)N1CCC(=Cc2cccc(Oc3ncc(-c4cccc(Cl)c4)cn3)c2)CC1 [Example 110, 4-(3-{[5-(3-chlorophenyl)pyrimidin-2-yl]oxy}benzylidene)-N-pyridazin-3-ylpiperidine-1-carboxamide] | 1020 M⁻¹ s⁻¹ |
| CCCc1cnc(Oc2cccc(C=C3CCN(C(=O)Nc4cccnn4)CC3)c2)nc1 [Example 111, 4-{3-[(5-propylpyrimidin-2-yl)oxy]benzylidene}-N-pyridazin-3-ylpiperidine-1-carboxamide] | 4240 M⁻¹ s⁻¹ |
| Cc1cnc(Oc2cccc(C=C3CCN(C(=O)Nc4cccnn4)CC3)c2)nc1C(C)C [Example 112, 4-{3-[(4-isopropyl-5-methylpyrimidin-2-yl)oxy]benzylidene}-N-pyridazin-3-ylpiperidine-1-carboxamide] | 861 M⁻¹ s⁻¹ |
